Columns and labels:
[1] = target: Insulin receptor (Homo sapiens) (UniProt P06213)
[2] = target: Serine/threonine-protein kinase mTOR (Homo sapiens) (UniProt P42345)
[3] = target: Dual specificity protein kinase CLK2 (Homo sapiens) (UniProt P49760)
[4] = target: Muscarinic acetylcholine receptor M5 (Homo sapiens) (UniProt P08912); conditions: Compound concentration 10.0 uM
[5] = target: Serine/threonine-protein kinase 4 (Homo sapiens) (UniProt Q13043)
[6] = target: Calcium/calmodulin-dependent protein kinase type 1B (Homo sapiens) (UniProt Q6P2M8)
[7] = target: Serine/threonine-protein kinase WNK1 (Homo sapiens) (UniProt Q9H4A3)
[8] = tested on: Hepatocyte growth factor receptor (Homo sapiens), P08581 [M1250T]
[9] = target: Interleukin-1 receptor-associated kinase 3 (Homo sapiens) (UniProt Q9Y616)
[10] = target: Beta-1 adrenergic receptor (Homo sapiens) (UniProt P08588); conditions: Compound concentration 10.0 uM
[11] = target: Serine/threonine-protein kinase PLK1 (Homo sapiens) (UniProt P53350)
[12] = target: Serine/threonine-protein kinase N2 (Homo sapiens) (UniProt Q16513)
[13] = target: Serine/threonine-protein kinase pim-1 (Homo sapiens) (UniProt P11309)
[14] = target: Tyrosine-protein kinase Fer (Homo sapiens) (UniProt P16591)
[15] = tested on: Epidermal growth factor receptor (Homo sapiens), P00533 [G719C]
[16] = target: Ribosomal protein S6 kinase alpha-6 (Homo sapiens) (UniProt Q9UK32)
[17] = target: Insulin receptor-related protein (Homo sapiens) (UniProt P14616)
[18] = target: Serine/threonine-protein kinase Nek6 (Homo sapiens) (UniProt Q9HC98)
[19] = target: Serine/threonine-protein kinase TNNI3K (Homo sapiens) (UniProt Q59H18)
[20] = target: Serine/threonine-protein kinase WNK4 (Homo sapiens) (UniProt Q96J92)
[21] = target: Ribosomal protein S6 kinase alpha-2 (Homo sapiens) (UniProt Q15349)
[22] = target: Mitogen-activated protein kinase 8 (Homo sapiens) (UniProt P45983)
[23] = target: Dual serine/threonine and tyrosine protein kinase (Homo sapiens) (UniProt Q6XUX3)
[24] = tested on: Phosphatidylinositol 4,5-bisphosphate 3-kinase catalytic subunit alpha isoform (Homo sapiens), P42336 [E545K]
[25] = target: Phosphatidylinositol 3-kinase C2 domain-containing subunit gamma (Homo sapiens) (UniProt O75747)
[26] = target: Casein kinase II subunit alpha' (Homo sapiens) (UniProt P19784)
[27] = target: Non-receptor tyrosine-protein kinase TYK2 (Homo sapiens) (UniProt P29597)
[28] = target: Leukocyte tyrosine kinase receptor (Homo sapiens) (UniProt P29376)
[29] = target: Serine/threonine-protein kinase LATS1 (Homo sapiens) (UniProt O95835)
[30] = target: Phosphatidylinositol 3-kinase catalytic subunit type 3 (Homo sapiens) (UniProt Q8NEB9)
[31] = target: 3-phosphoinositide-dependent protein kinase 1 (Homo sapiens) (UniProt O15530)
[32] = target: MAP kinase-interacting serine/threonine-protein kinase 2 (Homo sapiens) (UniProt Q9HBH9)
[33] = target: Muscarinic acetylcholine receptor M2 (Homo sapiens) (UniProt P08172); conditions: Compound concentration 10.0 uM
[34] = target: High affinity nerve growth factor receptor (Homo sapiens) (UniProt P04629)
[35] = tested on: Tyrosine-protein kinase ABL1 (Homo sapiens), P00519 [M351T]
[36] = target: Serine/threonine-protein kinase 32C (Homo sapiens) (UniProt Q86UX6)
[37] = target: Proto-oncogene tyrosine-protein kinase Src (Homo sapiens) (UniProt P12931)
[38] = target: Cytoplasmic tyrosine-protein kinase BMX (Homo sapiens) (UniProt P51813)
[39] = target: G protein-coupled receptor kinase 3 (Homo sapiens) (UniProt P35626)
[40] = target: Serine/threonine-protein kinase DCLK3 (Homo sapiens) (UniProt Q9C098)
[41] = target: Eukaryotic translation initiation factor 2-alpha kinase 1 (Homo sapiens) (UniProt Q9BQI3)
[42] = target: Citron Rho-interacting kinase (Homo sapiens) (UniProt O14578)
[43] = tested on: Epidermal growth factor receptor (Homo sapiens), P00533 [L858R]
[44] = target: Ephrin type-A receptor 8 (Homo sapiens) (UniProt P29322)
[45] = target: Casein kinase I isoform delta (Homo sapiens) (UniProt P48730)
[46] = Compound concentration 1000.0 nM
[47] = Compound concentration 100.0 nM

Chain of Leukocyte tyrosine kinase receptor (Homo sapiens) (P29376 whole entry): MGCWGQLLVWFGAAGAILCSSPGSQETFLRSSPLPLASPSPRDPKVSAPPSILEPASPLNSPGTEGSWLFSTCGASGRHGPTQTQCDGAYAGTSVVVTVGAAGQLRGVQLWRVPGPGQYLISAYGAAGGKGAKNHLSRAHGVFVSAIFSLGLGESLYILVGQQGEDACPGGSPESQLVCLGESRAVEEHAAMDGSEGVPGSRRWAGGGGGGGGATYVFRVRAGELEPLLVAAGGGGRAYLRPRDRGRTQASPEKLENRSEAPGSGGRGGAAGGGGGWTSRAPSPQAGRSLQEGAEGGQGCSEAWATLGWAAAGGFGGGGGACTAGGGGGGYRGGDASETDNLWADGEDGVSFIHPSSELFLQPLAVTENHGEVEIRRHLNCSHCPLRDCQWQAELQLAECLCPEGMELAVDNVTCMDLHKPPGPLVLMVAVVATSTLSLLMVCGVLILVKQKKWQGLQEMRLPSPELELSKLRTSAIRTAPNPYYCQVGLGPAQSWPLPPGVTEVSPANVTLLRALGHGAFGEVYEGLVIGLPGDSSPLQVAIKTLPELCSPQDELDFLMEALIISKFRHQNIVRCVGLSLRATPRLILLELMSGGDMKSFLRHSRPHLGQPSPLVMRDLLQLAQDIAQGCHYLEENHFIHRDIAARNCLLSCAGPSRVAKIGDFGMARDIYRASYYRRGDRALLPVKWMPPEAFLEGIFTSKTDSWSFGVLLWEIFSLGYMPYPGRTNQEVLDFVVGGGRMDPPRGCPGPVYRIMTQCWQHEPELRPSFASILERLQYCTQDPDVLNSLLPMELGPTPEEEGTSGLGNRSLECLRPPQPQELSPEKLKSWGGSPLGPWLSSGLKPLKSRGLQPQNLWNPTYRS
Chain of Serine/threonine-protein kinase DCLK3 (Homo sapiens) (Q9C098 whole entry): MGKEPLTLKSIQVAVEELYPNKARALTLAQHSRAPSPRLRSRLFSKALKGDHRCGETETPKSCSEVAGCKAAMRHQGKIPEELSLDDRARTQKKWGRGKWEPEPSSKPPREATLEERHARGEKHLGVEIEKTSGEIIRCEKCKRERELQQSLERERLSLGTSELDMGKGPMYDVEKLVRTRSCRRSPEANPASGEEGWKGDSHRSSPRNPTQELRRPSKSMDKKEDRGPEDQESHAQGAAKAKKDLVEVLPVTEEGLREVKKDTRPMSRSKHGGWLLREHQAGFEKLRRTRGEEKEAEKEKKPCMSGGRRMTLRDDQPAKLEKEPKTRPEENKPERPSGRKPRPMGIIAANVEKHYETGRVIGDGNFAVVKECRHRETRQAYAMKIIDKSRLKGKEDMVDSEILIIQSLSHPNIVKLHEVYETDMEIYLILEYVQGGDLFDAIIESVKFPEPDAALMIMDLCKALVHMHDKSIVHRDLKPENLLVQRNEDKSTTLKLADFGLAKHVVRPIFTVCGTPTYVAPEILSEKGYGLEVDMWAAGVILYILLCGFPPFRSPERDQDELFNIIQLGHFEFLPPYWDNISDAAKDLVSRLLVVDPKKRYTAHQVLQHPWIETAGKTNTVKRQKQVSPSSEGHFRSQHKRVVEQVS
Chain of MAP kinase-interacting serine/threonine-protein kinase 2 (Homo sapiens) (Q9HBH9 whole entry, looked up): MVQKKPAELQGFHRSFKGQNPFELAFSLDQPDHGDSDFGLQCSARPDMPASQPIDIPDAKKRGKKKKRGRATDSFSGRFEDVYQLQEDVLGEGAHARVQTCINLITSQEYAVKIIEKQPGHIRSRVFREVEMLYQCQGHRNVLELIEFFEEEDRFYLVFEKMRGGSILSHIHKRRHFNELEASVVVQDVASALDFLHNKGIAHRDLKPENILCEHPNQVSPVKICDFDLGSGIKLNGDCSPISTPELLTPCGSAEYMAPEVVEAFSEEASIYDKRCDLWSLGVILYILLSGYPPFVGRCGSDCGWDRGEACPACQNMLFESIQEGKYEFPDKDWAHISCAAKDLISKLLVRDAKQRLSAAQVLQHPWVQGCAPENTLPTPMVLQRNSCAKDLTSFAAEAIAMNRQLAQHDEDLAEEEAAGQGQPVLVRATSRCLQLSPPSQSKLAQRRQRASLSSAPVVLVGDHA
Chain of Serine/threonine-protein kinase WNK4 (Homo sapiens) (Q96J92 whole entry): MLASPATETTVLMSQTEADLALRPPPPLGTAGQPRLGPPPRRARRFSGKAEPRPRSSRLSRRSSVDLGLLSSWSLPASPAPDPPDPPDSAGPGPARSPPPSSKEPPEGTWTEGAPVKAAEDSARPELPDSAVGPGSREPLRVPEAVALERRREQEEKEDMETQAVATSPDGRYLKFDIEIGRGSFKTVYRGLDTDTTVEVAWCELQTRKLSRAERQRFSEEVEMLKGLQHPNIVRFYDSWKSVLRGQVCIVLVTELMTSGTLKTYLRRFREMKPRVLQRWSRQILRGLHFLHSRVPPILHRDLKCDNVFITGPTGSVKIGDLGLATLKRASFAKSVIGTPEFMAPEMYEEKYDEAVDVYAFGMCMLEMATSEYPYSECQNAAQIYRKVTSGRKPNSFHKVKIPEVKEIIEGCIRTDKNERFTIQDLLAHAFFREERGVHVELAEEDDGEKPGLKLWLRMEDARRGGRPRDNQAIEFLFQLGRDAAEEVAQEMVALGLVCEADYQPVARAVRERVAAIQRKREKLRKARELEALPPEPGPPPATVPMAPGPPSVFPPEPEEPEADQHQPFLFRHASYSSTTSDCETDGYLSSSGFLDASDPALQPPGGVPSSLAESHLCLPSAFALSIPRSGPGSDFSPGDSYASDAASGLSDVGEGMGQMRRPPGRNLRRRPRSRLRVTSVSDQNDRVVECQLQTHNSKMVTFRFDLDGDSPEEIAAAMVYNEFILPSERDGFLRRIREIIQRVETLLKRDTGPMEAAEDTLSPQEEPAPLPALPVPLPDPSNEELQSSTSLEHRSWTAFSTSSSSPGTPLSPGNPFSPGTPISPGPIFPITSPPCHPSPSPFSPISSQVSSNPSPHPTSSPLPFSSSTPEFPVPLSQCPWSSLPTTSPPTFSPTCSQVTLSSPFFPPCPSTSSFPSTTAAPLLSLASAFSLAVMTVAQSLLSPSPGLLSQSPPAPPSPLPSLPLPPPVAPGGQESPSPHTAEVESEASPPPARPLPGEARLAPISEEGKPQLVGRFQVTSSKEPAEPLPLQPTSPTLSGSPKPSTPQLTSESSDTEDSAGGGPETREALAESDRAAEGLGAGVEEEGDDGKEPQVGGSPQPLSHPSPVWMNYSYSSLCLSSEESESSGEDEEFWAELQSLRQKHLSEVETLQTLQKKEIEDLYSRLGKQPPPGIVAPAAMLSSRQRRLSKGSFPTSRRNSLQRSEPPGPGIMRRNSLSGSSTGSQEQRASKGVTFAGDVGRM
Chain of Eukaryotic translation initiation factor 2-alpha kinase 1 (Homo sapiens) (Q9BQI3 whole entry): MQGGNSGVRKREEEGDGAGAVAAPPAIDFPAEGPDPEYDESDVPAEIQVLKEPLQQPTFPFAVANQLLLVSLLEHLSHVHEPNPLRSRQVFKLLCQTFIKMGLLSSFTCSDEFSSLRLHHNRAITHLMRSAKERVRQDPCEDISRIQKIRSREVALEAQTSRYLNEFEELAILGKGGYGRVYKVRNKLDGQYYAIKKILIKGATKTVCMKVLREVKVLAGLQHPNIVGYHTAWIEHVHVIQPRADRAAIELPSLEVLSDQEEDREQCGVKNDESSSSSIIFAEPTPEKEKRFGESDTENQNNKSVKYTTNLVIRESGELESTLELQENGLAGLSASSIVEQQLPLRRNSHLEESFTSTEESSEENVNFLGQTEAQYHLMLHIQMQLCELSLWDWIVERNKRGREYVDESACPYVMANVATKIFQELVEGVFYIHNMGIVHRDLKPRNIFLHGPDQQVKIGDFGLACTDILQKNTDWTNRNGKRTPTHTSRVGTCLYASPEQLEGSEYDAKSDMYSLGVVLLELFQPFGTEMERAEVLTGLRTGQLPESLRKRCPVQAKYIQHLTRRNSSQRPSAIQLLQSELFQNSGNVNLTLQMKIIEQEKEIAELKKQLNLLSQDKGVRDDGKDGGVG
Chain of Dual serine/threonine and tyrosine protein kinase (Homo sapiens) (Q6XUX3 whole entry, canonical isoform): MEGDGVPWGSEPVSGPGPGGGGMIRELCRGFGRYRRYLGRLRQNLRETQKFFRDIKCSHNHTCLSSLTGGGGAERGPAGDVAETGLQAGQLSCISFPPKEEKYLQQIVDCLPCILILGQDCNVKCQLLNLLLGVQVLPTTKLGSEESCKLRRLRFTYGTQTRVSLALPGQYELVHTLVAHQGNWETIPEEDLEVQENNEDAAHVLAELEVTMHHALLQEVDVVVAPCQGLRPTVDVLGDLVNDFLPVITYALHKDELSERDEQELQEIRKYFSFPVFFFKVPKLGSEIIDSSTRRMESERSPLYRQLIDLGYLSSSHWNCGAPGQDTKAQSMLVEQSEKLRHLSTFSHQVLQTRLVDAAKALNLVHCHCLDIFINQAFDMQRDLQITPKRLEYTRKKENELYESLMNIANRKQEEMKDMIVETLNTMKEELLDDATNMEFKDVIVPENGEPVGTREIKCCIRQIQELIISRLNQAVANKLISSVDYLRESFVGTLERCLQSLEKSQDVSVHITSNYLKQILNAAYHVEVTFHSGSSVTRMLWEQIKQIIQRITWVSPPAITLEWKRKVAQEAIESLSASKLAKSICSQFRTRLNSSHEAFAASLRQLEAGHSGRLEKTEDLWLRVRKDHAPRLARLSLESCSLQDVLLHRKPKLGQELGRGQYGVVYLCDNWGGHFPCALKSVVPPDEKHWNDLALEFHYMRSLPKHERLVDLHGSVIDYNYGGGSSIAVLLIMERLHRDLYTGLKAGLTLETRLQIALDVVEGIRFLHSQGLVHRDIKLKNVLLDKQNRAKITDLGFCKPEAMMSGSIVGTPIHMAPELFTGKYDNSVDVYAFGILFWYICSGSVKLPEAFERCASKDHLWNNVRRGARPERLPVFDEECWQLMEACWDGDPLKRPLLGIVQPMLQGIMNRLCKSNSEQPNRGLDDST

Work on Cc1cc(NC(=O)c2cccc(S(F)(F)(F)(F)F)c2)cc(-n2ccn3nc(-c4cccnc4)cc23)c1 [BAY-309] yielded a residual activity [1, 46] of 100%, a residual activity [2, 46] of 99.2% and a residual activity [3, 46] of 100%. For the same compound, the inhibition [4] was 8.74%, the residual activity [5, 46] was 100% and the residual activity [6, 46] was 100%. For the same compound, the residual activity [7, 46] was 100%, the residual activity [8, 46] was 83.2% and the residual activity [9, 46] was 100%. For the same compound, the inhibition [10] was -7.94%, the residual activity [11, 46] was 95.3% and the residual activity [12, 46] was 100%. It also gave a residual activity [13, 46] of 95.6%, a residual activity [14, 46] of 59.4% and a residual activity [15, 46] of 94.2%. For the same compound, the residual activity [16, 46] was 100%, the residual activity [17, 46] was 100% and the residual activity [18, 46] was 97%. The residual activity [19, 46] was 100%, the residual activity [20, 46] was 100% and the residual activity [21, 46] was 84%. It also gave a residual activity [22, 46] of 55.9%, a residual activity [23, 46] of 72.8% and a residual activity [24, 46] of 72.5%. It also gave a residual activity [25, 46] of 100%, a residual activity [26, 46] of 100% and a residual activity [27, 46] of 100%. For the same compound, the residual activity [28, 46] was 100%, the residual activity [29, 46] was 100% and the residual activity [30, 46] was 76.6%. It also gave a residual activity [31, 46] of 92%, a residual activity [32, 46] of 85.2% and an inhibition [33] of 32.7%. It also gave a residual activity [34, 46] of 40.2%, a residual activity [35, 46] of 70.3% and a residual activity [36, 46] of 75.8%. The residual activity [37, 46] was 100%, the residual activity [38, 46] was 100% and the residual activity [39, 46] was 74.8%. For the same compound, the residual activity [40, 46] was 100%, the residual activity [41, 46] was 100% and the residual activity [42, 46] was 60.7%. It also gave a residual activity [43, 46] of 100%, a residual activity [44, 46] of 100% and a residual activity [45, 46] of 100%.

Compound Cc1cc(C)c(-n2ccn3nc(-c4cccnc4)cc23)cc1NC(=O)c1cc(C#N)cc(S(F)(F)(F)(F)F)c1 [BAY-826] has a residual activity [1, 47] of 69%, a residual activity [2, 47] of 70.1% and a residual activity [3, 47] of 91%. For the same compound, the inhibition [4] was 16.1%, the residual activity [5, 47] was 88.5% and the residual activity [6, 47] was 83.6%. The residual activity [7, 47] was 97.3%, the residual activity [8, 47] was 100% and the residual activity [9, 47] was 75.2%. The inhibition [10] was 9.41%, the residual activity [11, 47] was 100% and the residual activity [12, 47] was 100%. For the same compound, the residual activity [13, 47] was 92%, the residual activity [14, 47] was 100% and the residual activity [15, 47] was 91.6%. For the same compound, the residual activity [16, 47] was 74.9%, the residual activity [17, 47] was 91.8% and the residual activity [18, 47] was 93.9%. It also gave a residual activity [19, 47] of 85.8%, a residual activity [20, 47] of 100% and a residual activity [21, 47] of 90.9%. For the same compound, the residual activity [22, 47] was 76.8%, the residual activity [23, 47] was 71.1% and the residual activity [24, 47] was 77.8%. The residual activity [25, 47] was 60.7%, the residual activity [26, 47] was 82.4% and the residual activity [27, 47] was 87.3%. For the same compound, the residual activity [28, 47] was 32.8%, the residual activity [29, 47] was 83.9% and the residual activity [30, 47] was 84.9%. For the same compound, the residual activity [31, 47] was 100%, the residual activity [32, 47] was 95% and the inhibition [33] was 10.5%. It also gave a residual activity [34, 47] of 74.8%, a residual activity [35, 47] of 82.6% and a residual activity [36, 47] of 83.4%. It also gave a residual activity [37, 47] of 92.6%, a residual activity [38, 47] of 76.7% and a residual activity [39, 47] of 90.6%. For the same compound, the residual activity [40, 47] was 83.5%, the residual activity [41, 47] was 100% and the residual activity [42, 47] was 69.9%. For the same compound, the residual activity [43, 47] was 83.9%, the residual activity [44, 47] was 83.5% and the residual activity [45, 47] was 100%.

Reference: ChEMBL document CHEMBL4507270 (2021)
